{"source": "patent EP2420255A2", "about": "“Polypeptide inhibitors of urokinase type plasminogen activator” (Ecole Polytechnique Federale De Lausanne (EPFL), priority 2010, dated 2012)", "key": {"[1]": {"target": "T1, uPA (Homo sapiens, UniProt P00749)", "details": "literature, cited from earlier work"}, "[2]": {"tested_on": "MDA-MB-231 cells", "experiment": "Cell viability assay (CellTiter-Glo, ATP concentration)", "assay_type": "cell-based, human", "details": "24 hrs, UK18 1-100 µM", "method": "MDA-MB-231 human breast adenocarcinoma cells (ATCC) were cultured in RPMI medium (RPMI-1640 containing 25 mM HEPES and L-glutamine; NEAA, 100X Stock, and 1 unit/ml penstrep, 20'000 units/ml penicillin and 20'000 units/ml streptomycin stock, Lonza, Visp, Switzerland) supplemented with 5% v/v fetal calf serum (FCS, Lonza) at 37 °C in a humidified 5% CO2/95% air atmosphere.\nThe effect of UK18 on the MDA-MB-231 cell viability was measured by using the CellTiter-Glo Luminescent Cell Viability Assay (Promega, Madison, WI, USA). The assay measures the number of viable cells in culture based on the ATP concentration. 200 µL of 2.0 x 10^5 MDA-MB-231 cells/ml in RPMI media (FCS-free) supplemented with 0.2% w/v BSA were inoculated at a density of 4.0 x 10^4 cells per well in 96-well opaque walled polystyrene plate tissue culture treated (Corning Incorporated, Corning, NY, USA) for 24 hrs at 37 °C in a humidified 5% CO2/95% air atmosphere. The culture supernatant was then removed and 100 µl of new RPMI media (FCS-free) supplemented with 0.2% w/v BSA containing different three-fold dilution concentrations of UK18 (1, 3.3, 10, 33 and 100 µM) were added to the cells and the plate incubated for 24 hrs at 37 °C in a humidified 5% CO2/95% air atmosphere. […] The luminescence signal was finally recorded using a Tristar LB 941 microplate reader (Berthold Technologies, Bad Wildbad, Germany). […]"}, "[3]": {"target": "T1, uPA", "experiment": "Activity determination of chemically synthesized inhibitors, residual protease activity", "assay_type": "biochemical", "parameters": "human uPA (UPA-LMW, from human urine, 33 kDa); purchased Molecular Innovations, Novi, MI, USA UPA-LMW; host or cells: human urine", "details": "synthetic peptide-TBMB conjugate, pH 7.4, 25°C", "method": "(§1) Peptides with a free amine at the N-terminus and an amide at the C-terminus were chemically synthesized on a 50 mg to 1 g scale by solid phase chemistry (JPT Peptide Technologies, Berlin, Germany or GL Biochem Ltd., Shanghai, China). The crude peptides (1 mM) in 1 ml 5% v/v DMSO, 65% v/v 20 mM NH4HCO3, pH 8.0 and 30% v/v ACN, were reacted with TBMB (1.2 mM) for 1 hr at 30 °C. The reaction product was purified by preparative reversed-phase high performance liquid chromatography (HPLC) system (PrepLC 4000, Waters, Millford, MA, USA) and a Vydac C18 (218TP) column (22 x 250 mm) (Grace & Co., USA). At a flow rate of 20 ml/min, a linear gradient was applied with a mobile phase composed of eluant A (0.1% v/v aqueous trifluoroacetic acid (TFA) solution, 99.9 % v/v H2O) and eluant B (94.9% v/v ACN, 5% v/v H2O and 0.1 % v/v TF A). The purified peptides were freeze-dried and dissolved in H2O for activity measurements.\n(§2) Residual activities were measured in buffer containing 10 mM Tris-Cl, pH 7.4, 150 mM NaCl, 10 mM MgCl2, 1mM CaCl2, 0.1% w/v BSA, 0.01% v/v Triton-X100 and 5% v/v DMSO in volume of […]. […] Absorption and fluorescence intensity were measured with a Spectramax absorption plate reader (recording at 410 nm; Molecular Devices, USA) and a Spectramax Gemini fluorescence plate reader (excitation at 355 nm, emission at 460 nm; Molecular Devices, USA), respectively. […]"}, "[4]": {"target": "tPA (Homo sapiens, UniProt P00750)", "sequence (P00750 36-562, species assumed)": "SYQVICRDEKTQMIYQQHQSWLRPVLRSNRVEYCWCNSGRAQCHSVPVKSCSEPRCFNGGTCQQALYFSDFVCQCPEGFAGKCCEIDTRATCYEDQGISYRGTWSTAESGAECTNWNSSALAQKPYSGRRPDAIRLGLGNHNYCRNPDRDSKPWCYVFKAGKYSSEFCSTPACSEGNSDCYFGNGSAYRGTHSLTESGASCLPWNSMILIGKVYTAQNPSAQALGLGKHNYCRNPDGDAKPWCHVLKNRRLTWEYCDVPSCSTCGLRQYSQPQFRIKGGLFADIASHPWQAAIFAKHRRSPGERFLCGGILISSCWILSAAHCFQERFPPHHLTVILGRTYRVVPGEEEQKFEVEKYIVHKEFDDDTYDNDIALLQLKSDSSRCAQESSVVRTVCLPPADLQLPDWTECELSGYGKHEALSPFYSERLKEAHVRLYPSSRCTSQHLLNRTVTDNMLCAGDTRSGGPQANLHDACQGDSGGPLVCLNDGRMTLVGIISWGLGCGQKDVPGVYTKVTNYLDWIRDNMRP", "details": "literature; cited from earlier work"}, "[5]": {"tested_on": "factor Xa", "details": "literature; cited from earlier work"}, "[6]": {"tested_on": "thrombin", "details": "literature; cited from earlier work"}, "[7]": {"target": "T1, uPA", "details": "literature; cited from earlier work"}, "[8]": {"tested_on": "murine lung carcinoma model", "details": "literature; cited from earlier work"}, "[9]": {"target": "plasma kallikrein (Homo sapiens, UniProt P03952)", "sequence (P03952 391-638 limits assumed, species assumed)": "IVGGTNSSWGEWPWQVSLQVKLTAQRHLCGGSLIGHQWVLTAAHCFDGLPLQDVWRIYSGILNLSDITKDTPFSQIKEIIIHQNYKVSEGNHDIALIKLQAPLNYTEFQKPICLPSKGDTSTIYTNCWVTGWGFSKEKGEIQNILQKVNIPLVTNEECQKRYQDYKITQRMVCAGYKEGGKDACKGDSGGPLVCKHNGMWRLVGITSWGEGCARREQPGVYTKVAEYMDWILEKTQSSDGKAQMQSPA", "sequence (P03952 20-390 partner limits assumed, species assumed)": "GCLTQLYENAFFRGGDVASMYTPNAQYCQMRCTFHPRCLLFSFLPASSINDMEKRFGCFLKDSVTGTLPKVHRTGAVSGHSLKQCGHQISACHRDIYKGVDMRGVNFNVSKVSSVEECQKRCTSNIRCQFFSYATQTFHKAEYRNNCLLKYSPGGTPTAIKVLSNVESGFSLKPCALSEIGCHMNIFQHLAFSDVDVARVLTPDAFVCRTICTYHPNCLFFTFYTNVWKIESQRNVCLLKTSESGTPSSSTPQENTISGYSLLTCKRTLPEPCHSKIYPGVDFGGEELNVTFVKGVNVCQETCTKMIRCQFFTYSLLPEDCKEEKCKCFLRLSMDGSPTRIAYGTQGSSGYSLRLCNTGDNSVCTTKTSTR", "details": "literature; cited from earlier work"}, "[10]": {"target": "T2, Murine uPA (Mus musculus, UniProt P06869)", "T2 construct": "mouse uPA (MUPA-LMW, recombinantly produced in insect cells, 31 kDa); purchased Molecular Innovations, Novi, MI, USA MUPA-LMW; host or cells: insect cells", "T2 sequence (P06869 180-433 limits assumed)": "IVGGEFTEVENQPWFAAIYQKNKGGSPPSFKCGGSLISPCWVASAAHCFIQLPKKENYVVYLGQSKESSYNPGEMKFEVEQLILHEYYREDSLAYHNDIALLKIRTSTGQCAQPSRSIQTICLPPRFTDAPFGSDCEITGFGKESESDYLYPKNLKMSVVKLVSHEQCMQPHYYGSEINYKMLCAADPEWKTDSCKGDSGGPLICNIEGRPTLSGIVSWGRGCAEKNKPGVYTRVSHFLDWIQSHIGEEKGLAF", "experiment": "Specificity determination of chemically synthesized inhibitors, residual protease activity", "assay_type": "biochemical", "details": "murine uPA versus human uPA", "method": "as §1, §2"}}, "note": "Read-outs that look alike come from different tables or passages of the source. Numbered stars: 1 amine (or outer) side, 2 acyl side, 3 side chain; on linkers, the order of the positions; unused ones are H or OH. Bridge positions count the residues as written; N and C are the ends. Ends that are not written are not given here. Peptide text beside a SMILES is read from it. TBMB = c1c(C[*:1])cc(C[*:3])cc1C[*:2]"}
{"compound": "CSWRGLENHRMC (cysteine pairing not given here) [upain-1]", "values": [{"measurement": "Ki", "setting": "[1]; at pH 6.0", "result": 6700, "unit": "nM"}, {"measurement": "Ki", "setting": "[1]; at physiological pH", "result": 29900, "unit": "nM"}]}
{"compound": "CC(C)[C@@H]1NC(=O)[C@H](CCC(=O)O)NC(=O)[C@H](Cc2ccc(O)cc2)NC(=O)[C@H](CCCN=C(N)N)NC(=O)[C@H](CO)NC(=O)[C@@H](NC(=O)[C@H](C)N)CSCc2cc3cc(c2)CSC[C@H](NC(=O)[C@H](CC(=O)O)NC1=O)C(=O)N[C@@H](CCCN=C(N)N)C(=O)NCC(=O)N[C@@H](CCCN=C(N)N)C(=O)NCC(=O)N[C@@H](CO)C(=O)N[C@@H](C)C(=O)N[C@H](C(=O)NCC(N)=O)CSC3", "note": "[UK18] (H-ACSRYEVDCRGRGSACG-NH2; linker 2-9-16 via TBMB)", "values": [{"measurement": "cell viability", "setting": "[2]", "result": "not toxic"}, {"measurement": "IC50", "setting": "[3]", "result": 47.2, "unit": "nM"}, {"measurement": "Ki", "setting": "[3]; corresponding to the IC50", "result": 30.1, "unit": "nM"}]}
{"compound": "N=C(N)c1ccc(CNC(=O)[C@H](CO)NC(=O)[C@@H](CO)NS(=O)(=O)Cc2ccccc2)cc1", "note": "[CJ-463, benzylsulfonyl-D-Ser-Ser-4-amidinobenzylamide]", "values": [{"measurement": "inhibition", "setting": "[4]", "result": "does not inhibit significantly"}, {"measurement": "inhibition", "setting": "[5]", "result": "does not inhibit significantly"}, {"measurement": "inhibition", "setting": "[6]", "result": "does not inhibit significantly"}, {"measurement": "Ki", "setting": "[7]", "result": 20, "unit": "nM"}, {"measurement": "primary tumour growth and metastasis formation", "setting": "[8]", "result": "reduce primary tumour growth and metastasis formation"}, {"measurement": "inhibition", "setting": "[9]", "result": "does not inhibit significantly"}]}
{"compound": "CC(C)[C@@H]1NC(=O)[C@H](CCC(=O)O)NC(=O)[C@H](Cc2ccc(O)cc2)NC(=O)[C@H](CCCNC(=N)N)NC(=O)[C@H](CO)NC(=O)[C@@H](NC(=O)[C@H](C)N)CSCc2cc3cc(c2)CSC[C@H](NC(=O)[C@H](CC(=O)O)NC1=O)C(=O)N[C@@H](CCCNC(=N)N)C(=O)NCC(=O)N[C@@H](CCCNC(=N)N)C(=O)NCC(=O)N[C@@H](CO)C(=O)N[C@@H](C)C(=O)N[C@H](C(=O)NCC(N)=O)CSC3", "note": "[UK18] (H-ACSRYEVDCRGRGSACG-NH2; linker 2-9-16 via TBMB)", "values": [{"measurement": "Ki higher than the Ki of human uPA", "setting": "[10]", "result": "around 1400 times"}]}
